Values joined by “and” are separate entries in the source; they are usually repeats but may differ in a detail not shown here. Identical values can stand only once.
Columns and labels:
Assay type in all cases: cell-based
TRPM8 = biological target: T1, TRPM8 (Rattus norvegicus, UniProt Q8R455); assay: Whole-cell patch clamp in TRPM8-expressing HEK-CR1 cells (menthol, voltage, cold); details: for effect on menthol-evoked TRPM8 current at 1 µM / IC50: 500 µM menthol; for effect on cold-evoked TRPM8 current: cold 16 °C; for IC50: whole cell, ratio P2/P1, read-out: IC50, TRPM8 activity evoked by menthol (patch clamp); for Hill coefficient nH: dose-response against 500 µM menthol
T1 construct: expressed in transfected cells
Protocol: As depicted in Fig. 3, perfusion with 500 µM menthol activated a large TRPM8 inward current at −60 mV (Fig. 3, control). […] The extent of TRPM8 activity shown in Fig. 3 corresponds to the ratio of channel activity between the second (P2) and the first (P1) pulses (ratio P2/P1) of menthol in order to take into account the channel desensitization (supplementary information Fig. 3S)[36], [37].
Left: Representative whole-cell voltage clamp recordings from TRPM8-expressing HEK-CR1 cells and compound 41 (A) and 45 (B). Voltage was held at −60 mV. Pre-application of compounds (20 s) was followed by co-application with 500 µM menthol (Control) for 20s. Current traces of different colours denote the different concentrations of compounds tested. Right: Dose response of compound 41 (A, red), 45 (B, blue) TRPM8 blocked activity. Solid line depicts the fitting to a Hill equation. Data are given as mean ± SEM, with n > 4 cells per data point.
Figure 4 Compound 41 abolished the voltage-evoked response on TRPM8. (A) Representative families of TRPM8 ionic currents in absence (Control) or presence of 1 μM 41 elicited with a voltage step protocol consisting of 200-ms depolarizing pulses from −60 to +120 mV in steps of 20 mV (inset). Holding potential −60 mV, time between pulses = 5s. (B) I-V relationships of TRPM8 channel activity in the absence (black) and presence of 1 µM 41 (red).
Figure 5 Compound 41 abolished the cold thermal activity response on TRPM8. Left: Representative families of TRPM8 ionic currents at +80mV in absence (A) or presence of 1µM 41 (B) activated by cold temperature (16 °C) obtained with a 300-ms ramp from −80 to +80 mV in intervals of 2 s during 3 minutes. Holding potential −60 mV. Right: I-V relationships of TRPM8 channel in basal conditions (a, black line), activated by cold in the absence (b, green line) and presence of 1 µM 41 (c, blue line). (C) Ratio currents between pulse 2 and pulse 1 induced by menthol in the absence (black bar) or in the presence (blue bar) of compound 41.
(§1) Electrophysiological recording was carried out 1–3 d after cells seeded. Membrane currents and voltages were recorded by patch clamp using the whole-cell configuration. For whole-cell recordings of HEK-hTRPV1 and HEK-TRPM8 cells, pipette solution contained (in mM) 140 CsCl, 5 EGTA, and 10 HEPES, adjusted to pH 7.2 with CsOH, and bath solution contained (in mM) 140 NaCl, 5 KCl, 2 CaCl2, 2 MgCl2, 5 EGTA, 10 D-glucose, 10 Mannitol and 10 HEPES, adjusted to pH 7.4 with NaOH. In calcium-free bath solution, CaCl2 was replaced with 5mM EGTA. For potassium and sodium recordings, CsCl was substituted by KCl and the pH was adjusted to pH 7.2 with KOH. Patch pipettes were prepared from thin-walled borosilicate glass capillaries (World Precision Instruments, Sarasota, FL, USA), pulled with a horizontal puller (P-97, Sutter Instruments, Novato, CA, USA) to have a tip resistance of 2–4 MΩ when filled with internal solutions. Data were sampled at 10 kHz (EPC10 amplifier with PatchMaster 2.53 software, HEKA Electronics, Lambrecht, Germany) and low-pass filtered at 3 kHz for analysis (PatchMaster 2.53 and GraphPad Prism 5, Graphpad Software, USA). The series resistance was <10 MΩ and to minimize voltage errors was compensated to 60–80%. All measurements were performed at 24–25°C. The temperature was adjusted with a water-cooled Peltier device placed at the inlet of the chamber and controlled by a feedback device (Automatic Temperature Controller TC-324B, Warner Instruments). Cold-sensitivity was investigated with a temperature decrease to 16–18 °C.

Kv1.1 = Kv1.1 (Homo sapiens, UniProt Q09470); assay: Whole-cell patch clamp in cells expressing Kv1.1
Protocol: as §1, with “The temperature was adjusted with a water-cooled Peltier device placed at the inlet of the chamber and controlled by a feedback device (Automatic Temperature Controller TC-324B, Warner Instruments). Cold-sensitivity was investigated with a temperature decrease to 16–18 °C.” left out

HEK-CR1 cells = assay: MTT-based assay of cytotoxicity; details: 24 hours incubation; three concentrations
Protocol: Figure 2S. Effect of derivative 41 and 45 on MTT-based assay of cytotoxicity in HEK-CR1 cells.
A) Cell survival after 24 hours incubation at three concentrations of derivative 41 or B) derivative 45.
Each value is expressed as mean ± SEM. n ≥ 4, ANOVA with Bonferroni post hoc test (*** p < 0.001).
Cell viability assay (MTT)
Cell viability was assessed by the detection of mitochondrial activity in living cells using a modified colorimetric analysis of Blue Tetrazolium Bromide Thiazolyl (MTT). Briefly, HEK293 cells (2 × 10^4 cells/well) were subcultured in 96-well plates, grown until 80–90% confluence, and incubated with increasing concentrations of testing compounds for 24 h. Following treatment, 10 μL of MTT solution (5 mg/mL in phosphate buffered saline) was added to each well and further incubated for 4 h at 37 °C. Subsequently, 100 μL of DMSO was added to each well to dissolve any deposited formazan resulting from cleavage and reduction of MTT by active mitochondrial dehydrogenases. The optical density of each well was measured at 540 nm with a microplate reader (Polastar BMG LABTECH, […]
(1 picture or pasted object on this page, not shown here)

NaV1.6 = NaV1.6 (Homo sapiens, UniProt Q9UQD0); assay: Whole-cell patch clamp in cells expressing NaV1.6
Protocol: as §1, with “The temperature was adjusted with a water-cooled Peltier device placed at the inlet of the chamber and controlled by a feedback device (Automatic Temperature Controller TC-324B, Warner Instruments). Cold-sensitivity was investigated with a temperature decrease to 16–18 °C.” left out

T1 sequence (Q8R455 whole entry): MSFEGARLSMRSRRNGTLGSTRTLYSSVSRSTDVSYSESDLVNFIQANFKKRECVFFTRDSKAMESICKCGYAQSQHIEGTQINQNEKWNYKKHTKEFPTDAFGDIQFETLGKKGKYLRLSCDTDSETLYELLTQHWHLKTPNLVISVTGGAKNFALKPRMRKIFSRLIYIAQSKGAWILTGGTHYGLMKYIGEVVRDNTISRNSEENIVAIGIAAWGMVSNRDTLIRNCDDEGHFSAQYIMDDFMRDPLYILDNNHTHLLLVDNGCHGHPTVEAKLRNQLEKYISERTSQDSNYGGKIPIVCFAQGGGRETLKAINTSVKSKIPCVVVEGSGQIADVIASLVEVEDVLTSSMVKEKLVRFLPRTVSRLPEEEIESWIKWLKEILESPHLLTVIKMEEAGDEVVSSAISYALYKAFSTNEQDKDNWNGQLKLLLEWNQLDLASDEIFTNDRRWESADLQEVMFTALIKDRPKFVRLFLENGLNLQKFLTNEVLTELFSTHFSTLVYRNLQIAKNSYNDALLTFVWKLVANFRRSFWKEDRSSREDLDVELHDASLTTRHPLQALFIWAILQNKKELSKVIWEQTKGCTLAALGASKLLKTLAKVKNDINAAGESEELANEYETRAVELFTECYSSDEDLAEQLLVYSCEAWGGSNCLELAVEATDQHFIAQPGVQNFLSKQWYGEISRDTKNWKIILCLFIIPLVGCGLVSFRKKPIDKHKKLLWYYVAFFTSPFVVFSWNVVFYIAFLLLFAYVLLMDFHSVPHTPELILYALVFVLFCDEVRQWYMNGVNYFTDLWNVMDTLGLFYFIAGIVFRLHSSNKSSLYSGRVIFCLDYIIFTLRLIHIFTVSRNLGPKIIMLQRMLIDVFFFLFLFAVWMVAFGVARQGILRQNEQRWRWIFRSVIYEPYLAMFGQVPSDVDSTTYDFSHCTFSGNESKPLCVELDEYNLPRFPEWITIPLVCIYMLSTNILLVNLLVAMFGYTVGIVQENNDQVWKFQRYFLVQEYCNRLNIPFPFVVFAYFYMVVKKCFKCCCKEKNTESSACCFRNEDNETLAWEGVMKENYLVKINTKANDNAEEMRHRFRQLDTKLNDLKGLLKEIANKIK
Sequence of NaV1.6 (Q9UQD0 whole entry): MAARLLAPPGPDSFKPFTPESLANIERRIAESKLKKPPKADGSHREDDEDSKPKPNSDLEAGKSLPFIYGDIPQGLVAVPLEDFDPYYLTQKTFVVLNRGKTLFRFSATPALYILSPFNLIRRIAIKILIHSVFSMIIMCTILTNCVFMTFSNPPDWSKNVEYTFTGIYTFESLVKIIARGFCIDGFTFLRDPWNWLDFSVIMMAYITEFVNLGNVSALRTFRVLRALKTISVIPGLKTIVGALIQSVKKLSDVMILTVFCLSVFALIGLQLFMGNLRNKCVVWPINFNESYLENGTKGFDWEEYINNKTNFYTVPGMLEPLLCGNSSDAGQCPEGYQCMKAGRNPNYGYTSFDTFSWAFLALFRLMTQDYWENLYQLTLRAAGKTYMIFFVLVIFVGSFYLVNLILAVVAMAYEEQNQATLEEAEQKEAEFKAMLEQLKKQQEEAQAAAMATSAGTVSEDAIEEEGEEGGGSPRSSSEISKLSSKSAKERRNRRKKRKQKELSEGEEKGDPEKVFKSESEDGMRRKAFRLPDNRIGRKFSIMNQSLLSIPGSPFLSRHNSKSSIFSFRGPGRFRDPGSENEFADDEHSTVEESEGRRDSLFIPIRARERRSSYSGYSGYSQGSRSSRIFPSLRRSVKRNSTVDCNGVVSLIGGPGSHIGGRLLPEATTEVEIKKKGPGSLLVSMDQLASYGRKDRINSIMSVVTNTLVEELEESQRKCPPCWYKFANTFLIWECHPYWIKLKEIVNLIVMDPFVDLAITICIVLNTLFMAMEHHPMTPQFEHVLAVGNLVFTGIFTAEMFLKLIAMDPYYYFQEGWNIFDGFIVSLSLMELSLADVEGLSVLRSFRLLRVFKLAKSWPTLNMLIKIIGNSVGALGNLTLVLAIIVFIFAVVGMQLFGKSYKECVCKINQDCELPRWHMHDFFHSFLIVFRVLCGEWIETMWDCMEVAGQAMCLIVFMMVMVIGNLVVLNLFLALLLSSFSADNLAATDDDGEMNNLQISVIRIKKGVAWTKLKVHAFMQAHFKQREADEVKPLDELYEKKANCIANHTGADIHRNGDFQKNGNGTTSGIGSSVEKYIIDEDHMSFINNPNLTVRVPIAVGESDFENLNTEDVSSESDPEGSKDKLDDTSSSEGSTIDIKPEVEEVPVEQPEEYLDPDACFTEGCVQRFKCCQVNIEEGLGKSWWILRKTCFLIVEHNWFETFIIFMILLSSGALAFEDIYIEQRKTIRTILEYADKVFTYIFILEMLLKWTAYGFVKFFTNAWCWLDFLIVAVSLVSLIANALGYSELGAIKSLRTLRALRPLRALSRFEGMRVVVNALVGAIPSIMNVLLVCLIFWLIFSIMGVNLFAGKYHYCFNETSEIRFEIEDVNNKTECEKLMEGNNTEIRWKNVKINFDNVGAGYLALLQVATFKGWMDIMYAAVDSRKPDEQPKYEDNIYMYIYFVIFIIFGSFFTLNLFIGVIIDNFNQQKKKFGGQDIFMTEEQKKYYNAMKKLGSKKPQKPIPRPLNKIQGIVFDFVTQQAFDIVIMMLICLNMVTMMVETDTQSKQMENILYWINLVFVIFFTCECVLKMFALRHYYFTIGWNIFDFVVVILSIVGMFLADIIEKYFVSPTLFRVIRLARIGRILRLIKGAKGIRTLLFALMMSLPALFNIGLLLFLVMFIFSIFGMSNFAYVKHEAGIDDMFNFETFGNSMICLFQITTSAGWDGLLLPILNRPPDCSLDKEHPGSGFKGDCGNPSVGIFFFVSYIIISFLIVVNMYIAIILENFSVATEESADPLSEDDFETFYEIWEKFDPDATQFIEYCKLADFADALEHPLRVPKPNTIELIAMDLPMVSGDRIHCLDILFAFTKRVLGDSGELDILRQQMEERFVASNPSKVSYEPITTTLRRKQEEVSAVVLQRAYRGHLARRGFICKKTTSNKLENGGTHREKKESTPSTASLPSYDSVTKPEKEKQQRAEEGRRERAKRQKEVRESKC
Sequence of Kv1.1 (Q09470 whole entry): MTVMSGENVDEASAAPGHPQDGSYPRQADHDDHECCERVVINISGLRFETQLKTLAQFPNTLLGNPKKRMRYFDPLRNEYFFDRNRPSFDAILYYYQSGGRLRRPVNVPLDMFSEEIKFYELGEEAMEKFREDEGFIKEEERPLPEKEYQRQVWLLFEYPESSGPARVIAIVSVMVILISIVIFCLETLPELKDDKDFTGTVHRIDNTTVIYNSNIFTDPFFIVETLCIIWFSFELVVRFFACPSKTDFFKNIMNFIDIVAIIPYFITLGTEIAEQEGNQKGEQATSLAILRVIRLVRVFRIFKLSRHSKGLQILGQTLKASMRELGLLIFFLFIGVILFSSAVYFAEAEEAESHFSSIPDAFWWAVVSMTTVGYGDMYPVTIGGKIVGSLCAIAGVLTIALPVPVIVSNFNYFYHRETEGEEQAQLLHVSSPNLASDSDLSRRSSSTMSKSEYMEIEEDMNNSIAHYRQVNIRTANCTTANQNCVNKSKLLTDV

| SMILES | effect on menthol-evoked TRPM8 current at 1 µM (TRPM8; 1 µM compound) | effect on cold-evoked TRPM8 current (TRPM8; 1 µM compound) | reduction of voltage-mediated TRPM8 activity (TRPM8; 1 µM compound, depolarizing voltage +120 mV) | agonist activity (activation) on TRPM8 (TRPM8; 1 µM compound, −60 mV) | reversibility of TRPM8 block (TRPM8; 1 µM, menthol pulse four minutes after removal of compound) | IC50 (TRPM8; −60 mV) | Hill coefficient nH (TRPM8; −60 mV) | IC50 (Kv1.1) | cytotoxicity in the MTT assay (HEK-CR1 cells) | IC50 (NaV1.6) | effect on voltage-evoked TRPM8 outward currents (TRPM8; 1 µM compound) |
| --- | --- | --- | --- | --- | --- | --- | --- | --- | --- | --- | --- |
| CC(C)(C)OC(=O)N[C@@H](CCN1C(=O)CC1(Cc1ccccc1)C(=O)OCc1ccccc1)C(=O)OCc1ccccc1 (stereo partly drawn) [Compound 41, 4R,S-Benzyl-4-benzyloxycarbonyl-1-[(3′S-benzyloxycarbonyl-3-tert-butoxycarbonylamino-3′-benzyloxycarbonyl)prop-1′-yl]-2-oxoazetidine] | almost totally absence of current | significant decrease in the current intensity | 90 ± 2% | did not produce activation | reversible | 46 nM | −1.5 ± 0.3 | > 1000 nM | did not display apparent cytotoxicity | > 1000 nM | – |
| CC1C(=O)N(CC[C@H](NC(=O)OC(C)(C)C)C(=O)OCc2ccccc2)C1(Cc1ccccc1)C(=O)OCc1ccccc1 (stereo partly drawn) [Compound 45, 4R,S-Benzyl-4-benzyloxycarbonyl-1-[(3′S-benzyloxycarbonyl-3′-tert-butoxycarbonylamino)prop-1′-yl]-(3R,S)-methyl-2-oxoazetidine] | almost totally absence of current | reduce significantly | – | – | – | 82.9 nM and 83 nM | −1.1 ± 0.2 | > 1000 nM | did not display apparent cytotoxicity | > 1000 nM | reduce significantly |

— article PMC5589751, “Synthesis, high-throughput screening and pharmacological characterization of β–lactam derivatives as TRPM8 antagonists” (Scientific Reports, 2017)
